{"source": "patent US7109215B2", "about": "“Compounds possessing neuronal activity” (Vertex Pharmaceuticals Incorporated, priority 1997, dated 2006)", "key": {"[1]": {"tested_on": "pheochromocytoma PC12 cells", "experiment": "Neurite outgrowth quantitation in PC12 cell system", "format": "cell-based, rat", "details": "1–5 ng/ml NGF, 72 hours", "method": "In order to directly determine the neurotrophic activity of compounds described in this invention, the neurite outgrowth assay was carried out with pheochromocytoma PC12 cells as described by Lyons et al. (1994).\nPC12 cells were maintained at 37° C. and 5% CO2 in Dulbecco's modified Eagle's medium (DMEM) supplemented with 10% heat-inactivated horse serum, 5% heat-inactivated fetal bovine serum (FBS), and 1% glutamate.\nThe cells were then plated at […] in 96 well plates coated with […] rat tail collagen and allowed to attach overnight. The medium was then replaced with DMEM, 2% heat-inactivated horse serum, 1% glutamate, 1–5 ng/ml of NGF (Sigma) and varying concentrations of the compounds of this invention (0.01 nM–10000 nM). The background control culture was administered with […] of NGF alone without compound. Positive control cultures were administered with high concentration of NGF (50 ng/ml). The cells were then incubated at 37° C. at 5% CO2 for 72 hours, fixed with 3% formaldehyde and nerve outgrowth was determined visually on a scale of 0 to 4."}, "L1210vMDRC.06 cells": {"tested_on": "L1210vMDRC.06 cells", "experiment": "MDR sensitization (reversal) assay, doxorubicin, XTT viability", "format": "cell-based, mouse", "details": "compound 2.5 μM, IC50 Dox/IC50 Dox+Inhibitor", "method": "(§1) We carried out multidrug resistance reversal (MDR) assays using L1210vMDRC.06 or HL60/Vinc cell lines. L1210vMDRC.06 are L1210 mouse leukemia cells transduced with the pHaMDR1/A retrovirus carrying a MDR1 cDNA, as described by Pastan et al., Proc. Natl. Acad. Sci. USA, 85, pp. 4486–4490 (1988). The L1210vMDRC.06 multidrug resistant line is a cell line that has been drug-selected by culturing transfected cells in 0.06 μg/ml colchicine. The HL60/Vinc human promyleocytic leukemia cell line is a multidrug resistant cell line derived from HL60 drug-sensitive parental cells by selection in increasing concentrations of vincristine.\nUsing L1210vMDRC.06, multidrug resistance reversal assays were conducted by plating 1×10^4 cells/well in 96 well microtiter plates and exposing them to a concentration range of doxorubicin (50 nM–10 μM) in the presence or absence of compounds of this invention (0.1, 0.25, 0.5, 1.0, or 2.5 μM) as described in U. Germann et al., Anti-Cancer Drugs, 8, pp. 125–140 (1997). After culture for 3 days, the viability of cells was quantitated using XTT dye to assess mitochondrial function [Roehm et al., J. Immunol. […] Results were determined by comparison of the IC50 for doxorubicin alone to the IC50 for doxorubicin+compound. An MDR ratio was calculated (IC50 Dox/IC50 Dox+Inhibitor) and the integer value used for comparison of compound potencies."}, "HL60/Vinc cells": {"tested_on": "HL60/Vinc cells", "experiment": "MDR sensitization (reversal) assay, doxorubicin, XTT viability", "format": "cell-based, human", "details": "compound 2.5 μM, IC50 doxorubicin alone / IC50 doxorubicin plus compound", "method": "as §1\nAssays using HL60/Vinc cells were performed by plating cells in 96 well microtiter plates at a concentration of 4×10^4 cells/well. The cells were then exposed to various concentrations of doxorubicin (9 nM to 6.7 μM) in the presence or absence of various compounds of this invention at various concentrations (0.5, 1.0, 2.5, 5.0 or 10 μM) as described in U. Germann et al., Anti-Cancer Drugs, 8, pp. 141–155 (1997). After culturing the cells for 3 days, their viability was quantitated using the XTT dye method to assess mitochondrial function (Roehm et al., supra). Results were expressed as a ratio of the IC50 for doxorubicin alone to the IC50 for doxorubicin plus compound. In all assays the intrinsic antiproliferative or cytotoxicity activity of the MDR inhibitors was also determined for HL60/Vinc cells."}, "FKBP": {"molecular_target": "FKBP (Homo sapiens, UniProt P62942)", "sequence (P62942 whole entry)": "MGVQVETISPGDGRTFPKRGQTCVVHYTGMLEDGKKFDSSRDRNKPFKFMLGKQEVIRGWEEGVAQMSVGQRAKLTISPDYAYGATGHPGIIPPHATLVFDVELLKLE", "experiment": "Rotamase inhibition assay (chymotrypsin-coupled PPIase assay)", "format": "biochemical", "details": "15 nM FKBP, 30 μM Suc-Ala-Leu-Pro-Phe-pNA, 15° C.", "method": "Inhibition of FKBP enzyme activity was determined in the PPIase assay described in S. T. Park et al., J. Biol. Chem., 267, pp. 3316–24 (1992), the disclosure of which is herein incorporated by reference. This is a chymotrypsin-coupled assay in which FKBP catalyzes the cis to trans isomerization of the Leu-Pro bond in the peptide substrate Suc-Ala-Leu-Pro-Phe-pNA. The trans form, but not the cis form, is cleavable by chymotrypsin. The release Phe-pNA was monitored by absorbance at 400 nm. Chymotrypsyn cleavage is very rapid and therefore cis-to-trans isomerization is rate-limiting.\nEach reaction mix consisted of 0.1 M Tris buffer, pH 7.8, 15 nM FKBP, 30 μM substrate and 0.5 nM to 10 μM of compound to be tested diluted in Me2SO. The mixture was incubated at 15° C. for 5 minutes and then reaction was initiated by addition of chymotrypsin (100 μg/ml final concentration) and followed spectrophotometrically for 5 minutes. Total reaction volume was 1 ml."}}, "note": "Marks after values point to notes of the source that are not given here.", "data": [{"smiles": "COc1cc(C(=O)CN2CCCCC2C(=O)OC(CCCc2cccnc2)CCCc2cccnc2)cc(OC)c1OC", "note": "(centres unmarked) [Compound 105]", "values": [{"measurement": "Neurite outgrowth, visual scale of 0 to 4", "setting": "[1]; compound 10 nM", "value": 4}, {"measurement": "Neurite outgrowth, visual scale of 0 to 4", "setting": "[1]; compound 100 nM", "value": 4}, {"measurement": "Neurite outgrowth, visual scale of 0 to 4", "setting": "[1]; compound 1000 nM", "value": 0}, {"measurement": "MDR Ratio", "setting": "L1210vMDRC.06 cells", "value": 10}]}, {"smiles": "COc1ccc(S(=O)(=O)N(C)[C@@H](Cc2ccccc2)C(=O)N(C)C(CCCc2cccnc2)CCCc2cccnc2)cc1", "note": "[Compound 18]", "values": [{"measurement": "MDR Ratio", "setting": "HL60/Vinc cells", "value": 10.8}, {"measurement": "Neurite outgrowth, visual scale of 0 to 4", "setting": "[1]; compound 10 nM", "value": "3*"}, {"measurement": "Neurite outgrowth, visual scale of 0 to 4", "setting": "[1]; compound 100 nM", "value": "4*"}, {"measurement": "Neurite outgrowth, visual scale of 0 to 4", "setting": "[1]; compound 1000 nM", "value": "4*"}, {"measurement": "Ki", "setting": "FKBP", "value": "> 50", "unit": "µM"}]}, {"smiles": "CN(CCc1ccccn1)C(=O)C1CCCCN1", "note": "(centres unmarked) [Compound 106]", "values": [{"measurement": "MDR Ratio", "setting": "HL60/Vinc cells", "value": 1.2}, {"measurement": "Neurite outgrowth, visual scale of 0 to 4", "setting": "[1]; compound 100 nM", "value": "1*"}, {"measurement": "Neurite outgrowth, visual scale of 0 to 4", "setting": "[1]; compound 1000 nM", "value": "2*"}, {"measurement": "Ki", "setting": "FKBP", "value": "> 50", "unit": "µM"}]}, {"smiles": "CN(CCCc1cccnc1)C(=O)[C@@H]1CCCCN1S(=O)(=O)c1ccc(N)cc1", "note": "[Compound 3]", "values": [{"measurement": "MDR Ratio", "setting": "HL60/Vinc cells", "value": 0.6}, {"measurement": "Neurite outgrowth, visual scale of 0 to 4", "setting": "[1]; compound 10 nM", "value": "2***"}, {"measurement": "Neurite outgrowth, visual scale of 0 to 4", "setting": "[1]; compound 100 nM", "value": "4***"}, {"measurement": "Neurite outgrowth, visual scale of 0 to 4", "setting": "[1]; compound 1000 nM", "value": "4***"}, {"measurement": "Ki", "setting": "FKBP", "value": "> 50", "unit": "µM"}]}, {"smiles": "CN1CCCCC1C(=O)OC(CCCc1ccncc1)CCCc1cccnc1", "note": "(centres unmarked) [Compound 111]", "values": [{"measurement": "MDR Ratio", "setting": "HL60/Vinc cells", "value": 1.2}, {"measurement": "Neurite outgrowth, visual scale of 0 to 4", "setting": "[1]; compound 0.01 nM", "value": "4*"}, {"measurement": "Neurite outgrowth, visual scale of 0 to 4", "setting": "[1]; compound 0.1 nM", "value": "4*"}, {"measurement": "Neurite outgrowth, visual scale of 0 to 4", "setting": "[1]; compound 1 nM", "value": "3*"}, {"measurement": "Neurite outgrowth, visual scale of 0 to 4", "setting": "[1]; compound 10 nM", "value": "2**"}, {"measurement": "Neurite outgrowth, visual scale of 0 to 4", "setting": "[1]; compound 100 nM", "value": "4**"}, {"measurement": "Neurite outgrowth, visual scale of 0 to 4", "setting": "[1]; compound 1000 nM", "value": "4**"}, {"measurement": "Neurite outgrowth, visual scale of 0 to 4", "setting": "[1]; compound 10000 nM", "value": "4*"}, {"measurement": "Ki", "setting": "FKBP", "value": "> 50", "unit": "µM"}]}, {"smiles": "CN(CCc1ccccn1)C(=O)C(Cc1ccccc1)N(C)S(=O)(=O)c1ccc(N)cc1", "note": "(stereo in doubt) [Compound 2, (S)-(N-methyl)-2-(methyl-(4-amino-benzenesulfanilamido))-3-phenyl-N-(2-(pyridin-2yl)ethyl) propionamide]", "values": [{"measurement": "MDR Ratio", "setting": "HL60/Vinc cells", "value": 0.7}, {"measurement": "Neurite outgrowth, visual scale of 0 to 4", "setting": "[1]; compound 10 nM", "value": "3***"}, {"measurement": "Neurite outgrowth, visual scale of 0 to 4", "setting": "[1]; compound 100 nM", "value": "3***"}, {"measurement": "Neurite outgrowth, visual scale of 0 to 4", "setting": "[1]; compound 1000 nM", "value": "4***"}, {"measurement": "Ki", "setting": "FKBP", "value": "> 50", "unit": "µM"}]}]}
